The subject of test [1] is 17α-Ethinylestradiol (E2-17α) induced cholestasis in rats. The test can be described thus: Bile discharge in 17α-ethinylestradiol (E2-17α) induced cholestasis in rats. It counts as in vivo, Sprague Dawley rats. To be noted: for Bile discharge amount compared with the ursodeoxycholic acid group: 105 minutes after administration, UDCA 15 mg/kg; for Bile flow rate compared with the E2-17α group / Effect on ameliorating intrahepatic cholestasis, promoting bile excretion: E2-17α cholestasis rats; for Bile flow rate compared with the E2-17α group: P<0.05 vs E2-17α; for Effect on ameliorating intrahepatic cholestasis, promoting bile excretion: conclusion. On the procedure:
Preparation of 1.0% CMC-Na solution: 1 p CMC-Na powder was weighed and added to 100 mL (50° C.) of distilled water, the mixture was rapidly stirred with a stirrer for 1 hour to fully swell, thereby to obtain a 1% CMC-Na solution.
Preparation of E2-17α solution in propylene glycol: 54/0.98=56 mp of E2-17α was weighed, dissolved in […] of propane-1,2-diol, shaked by a vortexer for 1 hour, thereby to obtain a 7 mp/mL suspension of E2-17α.
(§1) 17α-Ethinylestradiol (E2-17α) was administered by subcutaneous injection into the neck for model establishment for 7 days. Meantime, the test compounds were suspended in a 1% CMC-Na solution and administered by intragastric administration for 7 days during the E2-17α modeling.
(§2) E2-17α in propylene glycol was administered to rats for 7 days to establish the model, and different test samples in CMC-Na solution were administered by intragastric administration. On the 8th day, 1 mL of rat fasting blood sample was collected for detection of serum biochemical indicators, and E2-17α in propylene glycol was continuously administered to establish the model, and different test samples CMC-Na solution were administered by intragastric administration. After 0.5 hours of administration on the 9th day, the rats were weighed and anesthetized with 10% urethane (10 mL/kg) via intraperitoneal injection. After anesthesia, the rat was fixed on a board. A midline abdominal incision was made from the upper acetabular area, and the incision was about 2 to 3 cm. The indoor temperature should be maintained during the experiment, the body temperature of the rats was maintained and bile outflow was promoted. Handle of ophthalmic forceps was used to turn the liver up and find the duodenum and stomach junction. A suture (size 0) was placed at the junction to reserve. On the duodenum, about 2 cm away from the pylorus, a thin tube with a yellow transparent tube perpendicular to the duodenum could be found passing through the pancreas, that is, the common bile duct. At the junction of the common bile duct and the duodenum, the common bile duct was separated by an ophthalmic curved forceps, but was careful not to break the small blood vessels around the bile duct and avoided stimulating the pancreatic tissue by hand. After the separation, two sutures were place, and the suture close to the intestine end was ligated, as a traction suture, ophthalmic scissors were used to obliquely cut a small opening in the wall of the tube, a prepared pancreatic juice collection tube was inserted into the small opening. A mixture of yellow bile and pancreatic juice flowed out immediately after the insertion. The tube was ligated and fixed, and this tube was used to collect bile. After completion of the intubation, the skin was sutured. The other end of the bile duct intubation was taken out, flowing out to a fixed 0.5 mL centrifuge tube. Bile was continuously collected 8 times once every 15 minutes, until 120 minutes.
After completion of the intubation, the skin was sutured to prevent water evaporation of the abdominal cavity. The other end of the bile duct intubation was taken out, and the bile flowed out to a fixed 0.5 mL collection tube. Bile was continuously collected 8 times once every 15 minutes for a total of 120 minutes. Before the experiment, the collection tube was accurately weighed using an analytical balance. After the bile was collected in the experiment, the total weight of the bile and the collection tube was weighed, and the weight of the bile in the tube was calculated by subtraction and converted to a volume based on 1 g/mL.
(§3) The data were analyzed using SPSS18.0 statistics software. Measurement data were compared between the two groups using the t test. Multiple groups of means were compared using one-way analysis of variance (ANOVA) and multiple comparisons between groups. Data mean±standard error (Mean±SEM.) or mean±standard deviation (Mean±SD.).

For test [2] the test system is unchanged. The test can be described thus: Serum ALT, AST, ALP in E2-17α induced cholestasis rats. To be noted: for Serum ALP / Serum ALT / Serum AST: E2-17α cholestasis rats after intragastric administration, x ± s; for Values of ALT, AST, and ALP (serum): E2-17α cholestasis rats, in words. It counts as in vivo, Sprague Dawley rats. On the procedure: as §1, §2
The blood sample was allowed to stand in a 37° C. water bath for 10 minutes, centrifuged at 3000 rpm (1368 g)×10 min, the serum was separated conventionally, dispensed and frozen at −20° C. for storage. The indicators to be detected in serum included ALT, AST, and ALP. The detection methods of the above indicators were all carried out in accordance with the relevant instructions of the kit.
as §3

In test [3] the test system is rat model of cirrhotic portal hypertension (TAA). The test can be described thus: Portal vein pressure in TAA-induced rat model of cirrhotic portal hypertension. It is filed as in vivo, rats. To be noted: i.g. Here is the method:
1) Preparation of saline solution of TAA: 10 g of thioacetamide (TAA) was weighed and dissolved in 100 mL of saline solution, and then filtered through a 0.22 μm sterile membrane filter into a sterile bottle.
2) Preparation of 0.5% CMC-Na suspension of test compound: 400 mg of Compound 1-H, Compound 1-IP, Compound 1-Cl, Compound 1-Mel or Compound 2-0 were weighed and dissolved in 100 mL of 0.5% CMC-Na solution, and shaken by a vortexer for 30 minutes, thereby to obtain 20 mg/Kg (high dose) groups. That is, CMC-Na suspension of 4 mg/mL of Compounds 1-H, 1-IP, 1-Cl, 1-Mel or 2-0. For the middle and low dose groups, drug preparation methods were the same.
(§4) A rat model of cirrhotic portal hypertension was established by intraperitoneal injection of TAA. Except that the blank control group was intraperitoneally injected with saline, remaining animals were intraperitoneally injected (i.p.) with 10% thioacetamide (TAA) in saline solution to establish the model. The dose was 200 mg/Kg, and the administration volume was 2 mL/Kg. All experimental animals were intraperitoneally injected with TAA or an equal volume of saline once every three days. Before each dose, the rat shaving beddings should be replaced by clean ones in advance. The body weight was measured once every two modeling administration. The body weight of the rats increased or decreased by 10% compared with the previous one, the dose of TAA increased or decreased by […] correspondingly. The administration was individualized to strictly control body weight change of each rat, which could effectively improve the success rate and uniformity of modeling.
The successfully modeled animals were randomly grouped, 12 rats per group, and 20 rats in the blank control group. Portal hypertension was induced by TAA in rats, and a portal hypertension model was established after 13 days. The test compound was administered once a day for 10 days. […]
Rats were fasted for 12 hours before the experiment, and were anesthetized with 10% chloral hydrate via intraperitoneal injection. […] Stable portal vein pressure was measured. […]

The test system is the same in test [4]. The test can be described thus: Liver appearance and liver pathological sections (Masson, HE) in TAA cirrhotic portal hypertension rats. It is filed as in vivo. Here is the method:
as §4
(§5) The successfully modeled animals were randomly grouped, 12 rats per group, and 20 rats in the blank control group. Portal hypertension was induced by TAA in rats, and a portal hypertension model was established after 13 days. The test compound was administered once a day for 10 days. The specific groupings are shown as follows:
2) A small piece at same part of the liver of the rat was cut and fixed in a 10% formaldehyde solution for tissue section pathology observation. An appropriate size of the liver was cut off, and the blood on the surface was washed off quickly with saline, put into a sterile EP tube, cryopreserved in liquid nitrogen for subsequent experiments.

Test [5] shares this test system. Description: Serum indicators (ALT, AST, ALP, ALB, γ-GT, TBA) in TAA cirrhotic portal hypertension rats. It counts as in vivo. To be noted: for Serum ALT level / Serum AST level: P<0.05. Here is the method: as §4, §5
At the end of the administration, orbital blood was collected from the rats. The blood sample was placed in a 37° C. water bath for 10 minutes, centrifuged for 10 minutes at 3000 r/min (1370 g). Upper layer of the serum was taken and detected directly, or temporarily stored at −80° C., for serologic indicator measurement. After the blood samples were collected, the rats were fed with foods and water for 3 days.
1) 1.5 mL of orbital blood was collected before the experiment, of which the steps were the same as the aforesaid steps, to measure serum ALT, AST, ALP, γ-GT and TBA contents.

Setting [6] is: all administration groups, P<0.05, P<0.01.

Where only a bound is given, the exact number is not on record here.

For `CC[C@@H]1C2C[C@H](O)CC[C@]2(C)C2CC[C@@]3(C)C(CC[C@@H]3[C@H](C)CCOP3(=O)OCC[C@@H](c4ccnc(Cl)c4)O3)C2[C@@H]1O` (some centres unmarked) [Compound 1-Cl], in test [1], the “Bile discharge amount compared with the ursodeoxycholic acid group” value was “significantly higher”; the “Bile flow rate compared with the E2-17α group” value was “significantly increased”; the “Effect on ameliorating intrahepatic cholestasis, promoting bile excretion” value (shortened to “Effect … promoting bile excretion”) is “significant effect”. In addition, in test [2], the “Serum ALP” value amounted to 226.65 ± 12.38 U/L; the “Serum ALT” value was determined as 77.36 ± 11.42 U/L; the “Serum AST” value is listed as 230.89 ± 12.38 U/L; the “Values of ALT, AST, and ALP (serum)” value is reported as “lower”.

Regarding `CC[C@@H]1C2C[C@H](O)CC[C@]2(C)C2CC[C@@]3(C)C(CC[C@@H]3[C@H](C)CCO[P@@]3(=O)OCC[C@@H](c4ccncc4)O3)C2[C@@H]1O` (some centres unmarked) [Compound 1-H], in test [1], the “Bile discharge amount compared with the ursodeoxycholic acid group” value was “significantly higher”; the “Bile flow rate compared with the E2-17α group” value was “significantly increased”; the “Effect … promoting bile excretion” value is recorded as “significant effect”. Also, in test [3] (TAA + 5 mg/Kg), the “Mean percentage change of portal vein pressure (vs mean of TAA group)” value (“Mean percentage change” for short) is given as over 10%. Also, the “Mean percentage change” value in test [3] (TAA + 10 mg/Kg) is over 10%. Besides, in test [3] (TAA + 20 mg/Kg), the “Mean percentage change” value is over 10%. Further, in test [2], the “Serum ALP” value was 218.64 ± 18.94 U/L; the “Serum ALT” value was 72.36 ± 14.74 U/L; the “Serum AST” value is recorded as 228.82 ± 17.74 U/L; the “Values of ALT, AST, and ALP (serum)” value is reported as “lower”. In test [4] (TAA + 5 mg/Kg), the “Appearance of liver and spleen (liver cirrhosis nodules) compared with TAA group” value is reported as “milder”; the “Liver pathological sections (Masson, HE): liver fibrosis” value was “symptoms of liver fibrosis were ameliorated”. Besides, the “Effect on hyperplasia of liver fibrous tissue and pseudolobule formation (pathological indicators)” value in test [4] (TAA rats, all dose groups) was “certain improvement effects”. In test [5] (5 mg/Kg group), the “Serum ALT level” value is on record as “decreased” and the “Serum AST level” value is reported as “decreased”. Also, in test [5] (10 mg/Kg group), the “Serum ALT level” value is “decreased” and the “Serum AST level” value is recorded as “decreased”. Moreover, in test [5] (20 mg/Kg group), the “Serum ALT level” value is on record as “decreased” and the “Serum AST level” value is recorded as “decreased”. Further, in test [5] (all administration groups, P<0.01), the “Serum TBA level” value is listed as “decreased”. In test [5] (setting [6]), the “Serum ALP level (FIG. 10 (C))” value is “decreased” and the “Serum γ-GT level” value is “decreased”.

As to `CC[C@@H]1C2C[C@H](O)CC[C@]2(C)C2CC[C@@]3(C)C(CC[C@@H]3[C@H](C)CCOP3(=O)OC(C)C[C@@H](c4ccncc4)O3)C2[C@@H]1O` (some centres unmarked) [Compound 1-Me1], in test [1], the “Bile flow rate compared with the E2-17α group” value is reported as “significantly increased” and the “Effect … promoting bile excretion” value is on record as “significant effect”. In addition, in test [2], the “Serum ALP” value is 235.64 ± 16.26 U/L; the “Serum ALT” value turned out to be 80.64 ± 13.22 U/L; the “Serum AST” value came to 252.18 ± 16.59 U/L; the “Values of ALT, AST, and ALP (serum)” value is “lower”.

In the case of `C[C@H](CCC(=O)O)[C@H]1CC[C@H]2[C@@H]3[C@@H](O)C[C@@H]4C[C@H](O)CC[C@]4(C)[C@H]3CC[C@]12C` [UDCA, ursodeoxycholic acid, reference compound], in test [2], the “Serum ALP” value is 242.18 ± 12.10 U/L, the “Serum ALT” value worked out at 85.55 ± 13.80 U/L and the “Serum AST” value was 263.36 ± 15.35 U/L.

Regarding `CC[C@@H]1C2C[C@H](O)CC[C@]2(C)C2CC[C@@]3(C)C(CC[C@@H]3[C@H](C)CCO[P@](=O)(N[C@@H](C)C(=O)COC(C)C)Oc3ccccc3)C2[C@@H]1O` (some centres unmarked) [Compound 2-0], in test [1], the “Bile flow rate compared with the E2-17α group” value is “significantly increased” and the “Effect … promoting bile excretion” value is on record as “significant effect”. In addition, in test [2], the “Serum ALP” value was 220.35 ± 12.92 U/L; the “Serum ALT” value was found to be 78.64 ± 10.65 U/L; the “Serum AST” value is listed as 236.59 ± 13.06 U/L; the “Values of ALT, AST, and ALP (serum)” value is given as “lower”.

In the case of `CC(C)[C@@H]1C2C[C@H](O)CC[C@]2(C)C2CC[C@@]3(C)C(CC[C@@H]3[C@H](C)CCOP3(=O)OCC[C@@H](c4ccncc4)O3)C2[C@@H]1O` (some centres unmarked) [Compound 1-IP], in test [1], the “Bile flow rate compared with the E2-17α group” value is listed as “significantly increased” and the “Effect … promoting bile excretion” value was “significant effect”. In test [2], the “Serum ALP” value was found to be 230.92 ± 14.00 U/L; the “Serum ALT” value worked out at 87.42 ± 11.72 U/L; the “Serum AST” value was found to be 258.83 ± 10.82 U/L; the “Values of ALT, AST, and ALP (serum)” value was “lower”.
